Assays:
POROL (common purslane) = assay: Pre-emergence herbicidal activity, warm season; assay type: in vivo, Portulaca oleracea; details: GR80 = lowest tested rate (300, 100, 30, 10 g/ha) with 80% or greater inhibition; approx. 14 days after treating; 30/21° C.
How it was run: (§1)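 Seeds sown in sterilised fertilised topsoil received surface-applied compound in 50:50 acetone/water, typically at 300, 100, 30 and 10 g/ha, then greenhouse-grown at 30/21° C (warm-season species) or 18/13° C (cool-season species). Percent inhibition versus untreated plants was scored at about 14 days, giving GR80; an asterisk marks activity short of 80% at the top rate.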

SINAR (wild mustard) = assay: Pre-emergence herbicidal activity, cool season; assay type: in vivo, Sinapis arvensis; details: lowest tested rate with 80% or greater inhibition; rates 300, 100, 30, 10 g/ha; about 14 days
How it was run: as §1

[1] = test system: VERPE (creeping speedwell); assay: Pre-emergence herbicidal activity, cool season; assay type: in vivo, Veronica persicaria; details: lowest tested rate with 80% or greater inhibition; rates 300, 100, 30, 10 g/ha; about 14 days
How it was run: as §1

[2] = test system: LAMPU (purple deadnettle); assay: Pre-plant incorporated (PPI) herbicidal activity, cool season; assay type: in vivo, Lamium purpureum; details: for PPI activity GR80, LAMPU: pre-plant incorporated, lowest tested rate with 80% or greater inhibition, about 14 days
Description: (§2) In another set of tests, the pre-plant incorporated (PPI) activity of compounds of this invention was evaluated on the same species as for the pre-emergence tests described above. In the PPI tests the following procedure, designed to simulate PPI application, was used.
(§3) A pre-prepared topsoil mixture (described above) was placed in a pot and compacted to a depth of 1.0 to 1.25 cm from the top of the pot. Seeds of each of several monocotyledonous and dicotyledonous annual plant species were placed on top of the soil. A sufficient quantity of soil to cover the seeds and level fill the pot was weighed into an open container. A known amount of the test compound was dissolved or suspended in an organic solvent and applied by spraying to this cover soil. The cover soil was thoroughly mixed to distribute the test compound throughout the cover soil, and was then applied as a cover layer over the seeds. Untreated soil was used as a cover layer for control pots. After treatment the plants were placed in a greenhouse where they received 0.64 cm of overhead irrigation. All subsequent watering consisted of a light overhead mist and/or subirrigation as needed for germination and growth. Tables 9 and 10 below relate to warm season plant species which were placed after pre-emergence treatment in a greenhouse with a 30/21° C. day/night temperature regime. Tables 11 and 12 below relates to cool season plant species placed after pre-emergence treatment in a greenhouse or growth chamber with an 18/13° C. day/night temperature regime. Only the compounds of Examples 1, 6, 8, 11, 13 and 15-20 were included in PPI tests.
(§4) Approximately 14 days after planting and treating, the plants were observed and herbicidal efficacy recorded as percent inhibition by comparison with untreated plants.

ALOMY (blackgrass) [3] = assay: as above; assay type: in vivo, Alopecurus myosuroides; details: for inhibition at 10 g/ha / inhibition at 30 g/ha / inhibition at 100 g/ha / inhibition at 300 g/ha / inhibition at 900 g/ha: Alopecurus myosuroides, read-out: Percent inhibition ALOMY; for inhibition at 10 g/ha / inhibition at 30 g/ha / inhibition at 100 g/ha / inhibition at 300 g/ha / inhibition at 900 g/ha / Percent inhibition ALOMY: weed, PPI application; for PPI activity GR80, ALOMY: pre-plant incorporated, lowest tested rate with 80% or greater inhibition, about 14 days
Description: as §2, §3, §4

XANST (cocklebur) = assay: Pre-plant incorporated (PPI) herbicidal activity, warm season; assay type: in vivo, Xanthium strumarium; details: PPI application; for inhibition at 10 g/ha / inhibition at 30 g/ha / inhibition at 100 g/ha / inhibition at 300 g/ha / inhibition at 900 g/ha: Xanthium strumarium, read-out: Percent inhibition XANST
Description: as §2, §3, §4

ALOMY (blackgrass) [4] = assay: Post-emergence herbicidal activity, cool season; assay type: in vivo, Alopecurus myosuroides; details: abraded plants sprayed at 300, 100, 30 and 10 g/ha; about 14 days after treatment
How it was run: (§5)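 Read-out was GR80, derived from percent growth inhibition relative to abraded, unsprayed control plants, observed roughly 14 days after spraying. Compounds in 50:50 acetone/water were applied at 300, 100, 30 and 10 g/ha to seedlings 9 to 14 days old whose foliage had been sand-abraded to aid uptake.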

BROTE (downy brome) = assay: Post-emergence herbicidal activity, cool season; assay type: in vivo, Bromus tectorum; details: abraded plants sprayed at 300, 100, 30 and 10 g/ha; about 14 days after treatment
How it was run: as §5

AVEFA (wild oat) = assay: Post-emergence herbicidal activity, cool season; assay type: in vivo, Avena fatua; details: abraded plants sprayed at 300, 100, 30 and 10 g/ha; about 14 days after treatment
How it was run: as §5

[5] = test system: AGSST (creeping bentgrass); assay: Post-emergence herbicidal activity, cool season; assay type: in vivo, Agrostis stolonifera; details: abraded plants sprayed at 300, 100, 30 and 10 g/ha; about 14 days after treatment
How it was run: as §5

[6] = Lamium purpureum, weed, PPI application, 10 g/ha, read-out: Percent inhibition LAMPU
[7] = Lamium purpureum, weed, PPI application, 30 g/ha, read-out: Percent inhibition LAMPU
[8] = Lamium purpureum, weed, PPI application, 300 g/ha, read-out: Percent inhibition LAMPU
[9] = Lamium purpureum, weed, PPI application, 900 g/ha, read-out: Percent inhibition LAMPU

Row | Compound | Pre-emergence activity (GR80) POROL (POROL (common purslane)) [g/ha] | Pre-emergence activity GR80, SINAR (SINAR (wild mustard)) | Pre-emergence activity GR80, VERPE [1] | inhibition at 10 g/ha [2, 6] [%] | inhibition at 30 g/ha [2, 7] [%] | inhibition at 300 g/ha [2, 8] [%] | inhibition at 900 g/ha [2, 9] [%] | PPI activity GR80, LAMPU [2] [g/ha] | inhibition at 10 g/ha (ALOMY (blackgrass) [3]; 10 g/ha) [%] | inhibition at 30 g/ha (ALOMY (blackgrass) [3]; 30 g/ha) [%] | inhibition at 100 g/ha (ALOMY (blackgrass) [3]; 100 g/ha) [%] | inhibition at 300 g/ha (ALOMY (blackgrass) [3]; 300 g/ha) [%] | inhibition at 900 g/ha (ALOMY (blackgrass) [3]; 900 g/ha) [%] | PPI activity GR80, ALOMY (ALOMY (blackgrass) [3]) [g/ha] | inhibition at 10 g/ha (XANST (cocklebur); 10 g/ha) [%] | inhibition at 30 g/ha (XANST (cocklebur); 30 g/ha) [%] | Post-emergence activity GR80, ALOMY (ALOMY (blackgrass) [4]) | Post-emergence activity GR80, BROTE (BROTE (downy brome)) | Post-emergence activity GR80, AVEFA (AVEFA (wild oat)) | Post-emergence activity GR80, AGSST [5] | also measured
1 | C=CCC(F)(F)S(=O)(=O)c1ncn(C(=O)N(CC)CC)n1 [Example 17, 1-(N,N-diethylcarbamoyl)-3-[(1,1-difluoro-3-butenyl)sulfonyl]-1,2,4-triazole] | 300 | 100 g/ha | 100 g/ha | 100 | 100 | 100 | 100 | 30 | 50 | 60 | 100 | 90 | 100 | 30 | 0 | 0 | [empty] | [empty] | [empty] | 300 g/ha | inhibition at 100 g/ha ([2]; Lamium purpureum, weed, PPI application, 100 g/ha, read-out: Percent inhibition LAMPU): 100%; inhibition at 100 g/ha (XANST (cocklebur); 100 g/ha): 0%; inhibition at 300 g/ha (XANST (cocklebur)): 20%; inhibition at 900 g/ha (XANST (cocklebur); 900 g/ha): 100%
2 | C=C(C)CC(F)(F)S(=O)(=O)c1ncn(C(=O)N(CC)CC)n1 [Example 18] | 100 | 300 g/ha | 300 g/ha | 0 | 0 | 0 | 70 | 10 | 60 | 60 | 30 | 80 | 80 | 100 | 0 | 0 | [empty] | [empty] | [empty] | [empty] | inhibition at 100 g/ha (XANST (cocklebur); 100 g/ha): 0%; inhibition at 300 g/ha (XANST (cocklebur)): 0%; inhibition at 900 g/ha (XANST (cocklebur); 900 g/ha): 30%
3 | C=C(Br)CC(F)(F)S(=O)(=O)c1ncn(C(=O)N(CC)CC)n1 [Example 19] | 300 | 30 g/ha | 300 g/ha | 0 | 0 | 0 | 99 | 100 | 60 | 50 | 70 | 100 | 100 | 30 | 0 | 0 | [empty] | [empty] | [empty] | [empty] | inhibition at 100 g/ha (XANST (cocklebur); 100 g/ha): 0%; inhibition at 300 g/ha (XANST (cocklebur)): 0%; inhibition at 900 g/ha (XANST (cocklebur); 900 g/ha): 90%
4 | C=C(CC(F)(F)S(=O)(=O)c1ncn(C(=O)N(CC)CC)n1)C[Si](C)(C)C [Example 20] | 300 | [empty] | [empty] | – | – | – | – | 100 | – | – | – | – | – | 100 | – | – | [empty] | [empty] | [empty] | [empty] | Percent inhibition LAMPU ([2]; weed, PPI application, 10 g/ha): 90%; Percent inhibition LAMPU ([2]; weed, PPI application, 30 g/ha): 60%; Percent inhibition LAMPU ([2]; weed, PPI application, 100 g/ha): 80%; Percent inhibition LAMPU ([2]; weed, PPI application, 300 g/ha): 100%; Percent inhibition LAMPU ([2]; weed, PPI application, 900 g/ha): 95%; Percent inhibition ALOMY (ALOMY (blackgrass) [3]; 10 g/ha): 0%; Percent inhibition ALOMY (ALOMY (blackgrass) [3]; 30 g/ha): 0%; Percent inhibition ALOMY (ALOMY (blackgrass) [3]; 100 g/ha): 20%; Percent inhibition ALOMY (ALOMY (blackgrass) [3]; 300 g/ha): 50%; Percent inhibition ALOMY (ALOMY (blackgrass) [3]; 900 g/ha): 100%; Percent inhibition XANST (XANST (cocklebur); 10 g/ha): 0%; Percent inhibition XANST (XANST (cocklebur); 30 g/ha): 0%; Percent inhibition XANST (XANST (cocklebur); 100 g/ha): 0%; Percent inhibition XANST (XANST (cocklebur); 900 g/ha): 50%

From patent publication US6461997B1, “Triazole sulfones having herbicidal activity” (Monsanto Technology LLC, priority 1999, dated 2002)
